Reference: ChEMBL document CHEMBL5614416, “Discovery of novel thiophene[3,2-d]pyrimidine-based tubulin inhibitors with enhanced antitumor efficacy for combined use with anti-pd-l1 immunotherapy in melanoma” (Eur J Med Chem, 2024)
Calls of active or inactive are those of the source. No cut-off for these calls is given here.

How the values were obtained:
HCT-116 = assay: Antiproliferative activity against human HCT-116 cells incubated for 48 hrs by MTT assay; assay type: functional, cell-based; conditions: HCT-116, 48 h
B16-F10 [1] = assay: Antiproliferative activity against mouse B16-F10 cells incubated for 48 hrs by MTT assay; assay type: functional, cell-based; conditions: B16-F10, 48 h
MCF7 [2] = assay: Antiproliferative activity against human MCF7 cells incubated for 48 hrs by MTT assay; assay type: functional, cell-based; conditions: MCF7, 48 h
NCI-H23 = assay: Antiproliferative activity against human NCI-H23 cells incubated for 48 hrs by MTT assay; assay type: functional, cell-based; conditions: NCI-H23, 48 h
HepG2 = assay: Antiproliferative activity against human HepG2 cells incubated for 48 hrs by MTT assay; assay type: functional, cell-based; conditions: HepG2, 48 h
B16-F10 [3] = assay: Induction of cell cycle arrest in mouse B16-F10 cells assessed as accumulation of cells at G1 phase at 1 nM incubated for 12 hrs by flow cytometry (reference value: 52.0 %); assay type: functional
B16-F10 [4] = assay: Induction of cell cycle arrest in mouse B16-F10 cells assessed as accumulation of cells at G2 phase at 2 nM incubated for 12 hrs by flow cytometry (reference value: 13.6 %); assay type: functional
B16-F10 [5] = assay: Induction of apoptosis in mouse B16-F10 cells assessed as viable cells at 0.5 nM incubated for 12 hrs by Annexin V-FITC/PI staining based flow cytometry (reference value: 93.6 %); assay type: functional; conditions: read-out: Activity
B16-F10 [6] = assay: Induction of apoptosis in mouse B16-F10 cells assessed as early apoptotic cells at 0.5 nM incubated for 12 hrs by Annexin V-FITC/PI staining based flow cytometry (reference value: 3.81 %); assay type: functional
B16-F10 [7] = assay: Induction of apoptosis in mouse B16-F10 cells assessed as late apoptotic cells at 0.5 nM incubated for 12 hrs by Annexin V-FITC/PI staining based flow cytometry (reference value: 2.39 %); assay type: functional
B16-F10 [8] = assay: Induction of apoptosis in mouse B16-F10 cells assessed as early apoptotic cells at 1 nM incubated for 12 hrs by Annexin V-FITC/PI staining based flow cytometry (reference value: 3.81 %); assay type: functional
B16-F10 [9] = assay: Induction of apoptosis in mouse B16-F10 cells assessed as viable cells at 2 nM incubated for 12 hrs by Annexin V-FITC/PI staining based flow cytometry (reference value: 93.6 %); assay type: functional; conditions: read-out: Activity
B16-F10 [10] = assay: Induction of apoptosis in mouse B16-F10 cells assessed as late apoptotic cells at 2 nM incubated for 12 hrs by Annexin V-FITC/PI staining based flow cytometry (reference value: 2.39 %); assay type: functional
B16-F10 [11] = assay: Induction of apoptosis in mouse B16-F10 cells assessed as necrotic cells at 2 nM incubated for 12 hrs by Annexin V-FITC/PI staining based flow cytometry (reference value: 0.25 %); assay type: functional
B16-F10 [12] = assay: Inhibition of cell migration in mouse B16-F10 cells assessed as migration rate at 1 nM incubated for 24 hrs by wound healing assay (reference value: 61.1 %); assay type: functional; set-up: scale not given: the % may be the effect or the level left
B16-F10 [13] = assay: Inhibition of cell migration in mouse B16-F10 cells assessed as migration rate at 2 nM incubated for 24 hrs by wound healing assay (reference value: 61.1 %); assay type: functional; set-up: scale not given: the % may be the effect or the level left
MCF7 [14] = assay: Inhibition of cell migration in human MCF7 cells assessed as migration rate at 1 nM incubated for 24 hrs by wound healing assay (reference value: 18.1 %); assay type: functional; set-up: scale not given: the % may be the effect or the level left
MCF7 [15] = assay: Inhibition of cell migration in human MCF7 cells assessed as reduction in wound closure incubated for 24 hrs by wound healing assay; assay type: functional, cell-based
MCF7 [16] = assay: Induction of apoptosis in human MCF7 cells assessed as decrease in Bcl-2 level upto 30 nM incubated for 24 hrs by Western blot analysis; assay type: functional, cell-based
MCF7 [17] = assay: Induction of apoptosis in human MCF7 cells assessed as increase in Bax level upto 30 nM incubated for 24 hrs by Western blot analysis; assay type: functional, cell-based
B16-F10 [18] = assay: Antitumor activity against mouse B16-F10 cells xenografted in C57 mouse at 7 mg/kg, ip qd for 12 days relative to control; assay type: functional; conditions: B16-F10, 288 h, time 12 day, read-out: TGI
[19] = Toxicity in C57 mouse xenografted with mouse B16-F10 cells assessed as body weight change at 3.5 mg/kg, ip qd for 12 days in presence of NP-19; assay type: organism-based; conditions: in vivo, 288 h, time 12 day
[20] = Toxicity in C57 mouse xenografted with mouse B16-F10 cells assessed as morphological abnormality in heart at 3.5 mg/kg, ip qd for 12 days in presence of NP-19 by H and E staining based analysis; assay type: organism-based; conditions: in vivo, 288 h, time 12 day
[21] = Toxicity in C57 mouse xenografted with mouse B16-F10 cells assessed as morphological abnormality in heart at 7 mg/kg, ip qd for 12 days by H and E staining based analysis; assay type: organism-based; conditions: in vivo, 288 h, time 12 day
[22] = Toxicity in C57 mouse xenografted with mouse B16-F10 cells assessed as morphological abnormality in liver at 7 mg/kg, ip qd for 12 days by H and E staining based analysis; assay type: organism-based; conditions: in vivo, 288 h, time 12 day
[23] = Toxicity in C57 mouse xenografted with mouse B16-F10 cells assessed as WBC count at 7 mg/kg, ip qd for 12 days by biochemical analysis (reference value: 8.240 to 8.340 10^9/L); assay type: organism-based; conditions: in vivo, 288 h, time 12 day
[24] = Toxicity in C57 mouse xenografted with mouse B16-F10 cells assessed as neutrophil count at 7 mg/kg, ip qd for 12 days by biochemical analysis (reference value: 2.130 to 5.46 10^9/L); assay type: organism-based; conditions: in vivo, 288 h, time 12 day
[25] = Toxicity in C57 mouse xenografted with mouse B16-F10 cells assessed as lymphocytes level at 7 mg/kg, ip qd for 12 days by biochemical analysis (reference value: 7.300 to 65.500 %); assay type: organism-based; conditions: in vivo, 288 h, time 12 day
[26] = Toxicity in C57 mouse xenografted with mouse B16-F10 cells assessed as RDW-CV at 7 mg/kg, ip qd for 12 days by biochemical analysis (reference value: 14.300 to 14.300); assay type: organism-based; conditions: in vivo, 288 h, time 12 day
[27] = Toxicity in C57 mouse xenografted with mouse B16-F10 cells assessed as MPV level at 7 mg/kg, ip qd for 12 days by biochemical analysis (reference value: 6.200 to 15.000); assay type: organism-based; conditions: in vivo, 288 h, time 12 day
[28] = Toxicity in C57 mouse xenografted with mouse B16-F10 cells assessed as MCV level at 3.5 mg/kg, ip qd for 12 days in presence of NP-19 by biochemical analysis (reference value: 15.800 to 48.900 fL); assay type: organism-based; conditions: in vivo, 288 h, time 12 day
[29] = Toxicity in C57 mouse xenografted with mouse B16-F10 cells assessed as basophil count at 3.5 mg/kg, ip qd for 12 days in presence of NP-19 by biochemical analysis (reference value: 0.060 to 25.500 10^9/L); assay type: organism-based; conditions: in vivo, 288 h, time 12 day
[30] = Toxicity in C57 mouse xenografted with mouse B16-F10 cells assessed as RDW-CV at 3.5 mg/kg, ip qd for 12 days in presence of NP-19 by biochemical analysis (reference value: 14.300 to 14.300); assay type: organism-based; conditions: in vivo, 288 h, time 12 day
[31] = Toxicity in C57 mouse xenografted with mouse B16-F10 cells assessed as PCT level at 3.5 mg/kg, ip qd for 12 days in presence of NP-19 by biochemical analysis (reference value: 0.425 to 5.300); assay type: organism-based; conditions: in vivo, 288 h, time 12 day

IC50 (HCT-116): 0.38 nM | IC50 (B16-F10 [1]): 11.7 nM | IC50 (MCF7 [2]): 9.53 nM | IC50 (NCI-H23): 8.94 nM | IC50 (HepG2): 9.37 nM
SMILES: Cc1nc(N(C)c2ccc3c(ccn3C)c2)c2sccc2n1
Activity (B16-F10 [3]): 13.8% | Activity (B16-F10 [4]): 72.8% | viability at 0.0005 µM (B16-F10 [5]): 80.1% | Activity (B16-F10 [6]): 11.2% | Activity (B16-F10 [7]): 7.06% | Activity (B16-F10 [8]): 11% | viability at 0.002 µM (B16-F10 [9]): 75% | Activity (B16-F10 [10]): 8.65% | Activity (B16-F10 [11]): 1.76% | Activity (B16-F10 [12]): 57.5% | Activity (B16-F10 [13]): 34.6% | Activity (MCF7 [14]): 15.7% | inhibition (MCF7 [15]): Dose-Dependent Effect | Activity (MCF7 [16]): Active | Activity (MCF7 [17]): Active | inhibition in vivo at 7 mg/kg (B16-F10 [18]): 63.3% | Activity [19]: Non-Toxic | Activity [20]: Non-Toxic | Activity [21]: Non-Toxic | Activity [22]: Non-Toxic | Activity [23]: 2.51 10^9/L | Activity [24]: 0.85 10^9/L | Activity [25]: 2.2% | Activity [26]: 14.2 | Activity [27]: 6 | Activity [28]: 15.7 fL | Activity [29]: 0.01 10^9/L | Activity [30]: 14 | Activity [31]: 0.179
